Measurements reported in patent US20150374784A1, “COMPOSITIONS AND METHODS FOR REDUCING GERM CELL DEATH” (Los Angeles Biomedical Research Institute at Harbor-UCLA …, priority 2014, published 2015).

Tested on: Leydig cells
Experiment: Testosterone of cultured Leydig cells treated with ketoconazole
Assay type: cell-based, rat
Conditions: HN 10 mcg/ml + KTZ 10 mcg/ml, 4 hours
Experimental: Leydig cells were isolated based on a previously described procedure (Gao, et al., 1996; Klinefelter, et al., 1987; Salva, et al., 2001). Briefly, the testes were decapsulated, and then dissociated with collagenase, dispase, DNase and shaking for 15 min at 34° C. The seminiferous tubules were removed by filtration through 40 μm nylon mesh (BD Falcon, Franklin Lakes, N.J.). Leydig cells were then harvested after centrifugation and purified using a Percoll gradient (GE Healthcare, Uppsala, Sweden) and centrifugation (60 minutes at 20,000 g at 4° C.). Enriched Leydig cells were harvested at densities between 1.065 (red) and 1.075 (blue) g/cm^3 from the percoll gradient. These Leydig cells were washed by diluting the percoll and excluding residual germ cells and other cells using a BSA density gradient with centrifugation. The purity of the Leydig cells was >90%, as determined by histochemical staining for 3β-hydroxysteroid dehydrogenase. The cell viability, as assessed by trypan blue exclusion, was greater than 90%. […]
Testosterone concentrations in plasma, testes, and culture medium were measured by a previously described radioimmunoassay (Lue, et al., 2010) with a minimal detection limit of 0.1 ng/ml. […]

Question: Which “KTZ induced decrease in testosterone production by Leydig cells” value does the source give for “MAPRGFSCLLLLTSEIDLPVKRRA [HN, 24-amino acid mitochondrial derived peptide]” here?
Answer: The value was “did not salvage the KTZ induced decrease in testosterone production”.
